From ChEMBL document CHEMBL1833871, “3D QSAR and docking study of flavone derivatives as potent inhibitors of influenza H1N1 virus neuraminidase” (Bioorg Med Chem Lett, 2011)

Biological target: Neuraminidase (Influenza A virus (A/Puerto Rico/8/1934(H1N1)), UniProt P03468)
Assay: Inhibition of influenza A virus A/PR/8/34(H1N1) neuraminidase assessed as fluorescent product using MUNANA as substrate after 60 mins by fluorescence analysis

Neuraminidase (Influenza A virus (A/Puerto Rico/8/1934(H1N1)), UniProt P03468), sequence (P03468 whole entry): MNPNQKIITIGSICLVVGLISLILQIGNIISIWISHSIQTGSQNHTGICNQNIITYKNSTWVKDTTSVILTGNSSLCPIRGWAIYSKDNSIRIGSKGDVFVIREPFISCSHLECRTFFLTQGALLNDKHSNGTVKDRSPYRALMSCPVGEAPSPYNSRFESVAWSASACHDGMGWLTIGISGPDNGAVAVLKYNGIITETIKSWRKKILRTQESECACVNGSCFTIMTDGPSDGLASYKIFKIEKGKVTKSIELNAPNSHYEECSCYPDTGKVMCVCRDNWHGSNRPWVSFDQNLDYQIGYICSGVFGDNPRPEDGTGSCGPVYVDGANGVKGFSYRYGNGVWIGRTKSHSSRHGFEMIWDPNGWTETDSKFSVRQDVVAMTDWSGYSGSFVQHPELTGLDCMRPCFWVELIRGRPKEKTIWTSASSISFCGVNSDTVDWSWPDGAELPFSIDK

O=c1cc(-c2ccc(O)cc2)oc2c(CN3CCOCC3)c(O)cc(O)c12
IC50: 50.5 µM

O=c1cc(-c2ccc(O)cc2)oc2c(CN3CCCC3)c(O)cc(O)c12
IC50: 44.5 µM

CN1CCN(Cc2c(O)c(O)c(O)c3c(=O)cc(-c4ccccc4)oc23)CC1
IC50: 302 µM

O=c1cc(-c2ccccc2)oc2c(CN3CCC(O)CC3)c(O)c(O)c(O)c12
IC50: 91.5 µM

CN1CCN(Cc2c(O)cc(O)c3c(=O)cc(-c4ccc(O)c(O)c4)oc23)CC1
IC50: 53.8 µM

O=c1cc(-c2ccc(O)cc2)oc2c(CN3CCC(Cc4ccccc4)CC3)c(O)cc(O)c12
IC50: 46.1 µM

CC1CCCN(Cc2c(O)cc(O)c3c(=O)cc(-c4ccc(O)cc4)oc23)C1 (stereo not given)
IC50: 52.5 µM

O=c1cc(-c2ccc(O)c(O)c2)oc2c(CN3CCCC(O)C3)c(O)cc(O)c12 (stereo not given)
IC50: 63.6 µM

O=c1cc(-c2ccccc2)oc2c(CN3CCOCC3)c(O)cc(O)c12
IC50: 448 µM

CN1CCN(Cc2c(O)cc(O)c3c(=O)cc(-c4ccccc4)oc23)CC1
IC50: 431 µM

O=c1cc(-c2ccc(O)c(O)c2)oc2c(CN3CCOCC3)c(O)cc(O)c12
IC50: 81.9 µM

O=c1cc(-c2ccccc2)oc2c(CN3CCCC(O)C3)c(O)cc(O)c12 (stereo not given)
IC50: 259 µM

O=c1cc(-c2ccccc2)oc2c(CN3CCC(CO)CC3)c(O)cc(O)c12
IC50: 83.7 µM

C[C@@H]1COC[C@H](C)N1Cc1c(O)cc(O)c2c(=O)cc(-c3ccc(O)c(O)c3)oc12
IC50: 43.5 µM

CC1CCCCN1Cc1c(O)cc(O)c2c(=O)cc(-c3ccc(O)c(O)c3)oc12 (stereo not given)
IC50: 161 µM

CC1CCCCN1Cc1c(O)c(O)c(O)c2c(=O)cc(-c3ccccc3)oc12 (stereo not given)
IC50: 99.7 µM

O=c1cc(-c2ccccc2)oc2c(CN3CCN(CCO)CC3)c(O)cc(O)c12
IC50: 135 µM

O=c1cc(-c2ccc(O)c(O)c2)oc2c(CN3CCC(CO)CC3)c(O)cc(O)c12
IC50: 64.2 µM

O=c1cc(-c2ccccc2)oc2c(CN3CCCCC3)c(O)c(O)c(O)c12
IC50: 104 µM

O=c1cc(-c2ccccc2)oc2c(CN3CCCC(O)C3)c(O)c(O)c(O)c12 (stereo not given)
IC50: 68.2 µM

O=c1cc(-c2ccccc2)oc2c(CN3CCN(CCO)CC3)c(O)c(O)c(O)c12
IC50: 276 µM

O=c1cc(-c2ccc(O)c(O)c2)oc2c(CN3CCCCC3)c(O)cc(O)c12
IC50: 62.9 µM

O=c1cc(-c2ccc(O)cc2)oc2c(CN3CCCC(O)C3)c(O)cc(O)c12 (stereo not given)
IC50: 45.3 µM

O=c1cc(-c2ccc(O)cc2)oc2c(CN3CCN(Cc4ccccc4)CC3)c(O)cc(O)c12
IC50: 48.5 µM

O=c1cc(-c2ccc(O)cc2)oc2c(CN3[C@H](O)COC[C@@H]3O)c(O)cc(O)c12
IC50: 64 µM

O=c1cc(-c2ccc(O)cc2)oc2c(CN3CCC[C@H]3CO)c(O)cc(O)c12
IC50: 49.7 µM

O=c1cc(-c2ccccc2)oc2c(CN3CCC(CO)CC3)c(O)c(O)c(O)c12
IC50: 470 µM

CN1CCN(Cc2c(O)cc(O)c3c(=O)cc(-c4ccc(O)cc4)oc23)CC1
IC50: 148 µM

CC1CCN(Cc2c(O)cc(O)c3c(=O)cc(-c4ccc(O)cc4)oc23)CC1
IC50: 164 µM

O=c1cc(-c2ccc(O)cc2)oc2c(CN3CCC(CO)CC3)c(O)cc(O)c12
IC50: 40.9 µM

O=c1cc(-c2ccccc2)oc2c(CN3CCCC3)c(O)cc(O)c12
IC50: 182 µM

O=c1cc(-c2ccccc2)oc2c(CN3CCC(O)CC3)c(O)cc(O)c12
IC50: 295 µM

C[C@@H]1COC[C@H](C)N1Cc1c(O)c(O)c(O)c2c(=O)cc(-c3ccccc3)oc12
IC50: 591 µM

O=c1cc(-c2ccc(O)cc2)oc2c(CN3CCC(O)CC3)c(O)cc(O)c12
IC50: 168 µM

O=c1cc(-c2ccccc2)oc2c(CN3CCCC3)c(O)c(O)c(O)c12
IC50: 107 µM
